Measured values reported in ChEMBL document CHEMBL1151930, “Physicochemical determinants of human renal clearance” (J Med Chem, 2009).

experiment: clinical; details: human, in vivo

| SMILES | CL renal |
| --- | --- |
| COc1ccc2c(c1)c(CC(=O)O)c(C)n2C(=O)c1ccc(Cl)cc1 [INDOMETHACIN] | 0.2 mL/min/kg |
| COCC(=O)Nc1c(I)c(C(=O)NCC(O)CO)c(I)c(C(=O)N(C)CC(O)CO)c1I (stereo not given) [IOPROMIDE] | 1.37 mL/min/kg |
| O=C(c1ccc(F)cc1)C1CCN(CCn2c(=O)[nH]c3ccccc3c2=O)CC1 [KETANSERIN] | 0.05 mL/min/kg |
| O=C(c1ccccc1)c1ccc2n1CCC2C(=O)O (stereo not given) [KETOROLAC] | 0.2 mL/min/kg |
| CC(CCc1ccccc1)NCC(O)c1ccc(O)c(C(N)=O)c1 (stereo not given) [LABETALOL] | 0.92 mL/min/kg |
| Cc1c(OCC(F)(F)F)ccnc1C[S+]([O-])c1nc2ccccc2[nH]1 (stereo not given) [LANSOPRAZOLE] | 0.04 mL/min/kg |
| N#Cc1ccc(C(c2ccc(C#N)cc2)n2cncn2)cc1 [LETROZOLE] | 0.02 mL/min/kg |
| N[C@@H](Cc1ccc(O)c(O)c1)C(=O)O [LEVODOPA] | 0.23 mL/min/kg |
| C[C@H]1COc2c(N3CCN(C)CC3)c(F)cc3c(=O)c(C(=O)O)cn1c23.C[C@H]1COc2c(N3CCN(C)CC3)c(F)cc3c(=O)c(C(=O)O)cn1c23.O [LEVOFLOXACIN] | 1.41 mL/min/kg |
| CC(=O)NC[C@H]1CN(c2ccc(N3CCOCC3)c(F)c2)C(=O)O1 [LINEZOLID] | 0.6 mL/min/kg |
| NCCCC[C@H](N[C@@H](CCc1ccccc1)C(=O)O)C(=O)N1CCC[C@H]1C(=O)O [LISINOPRIL ANHYDROUS] | 1.2 mL/min/kg |
| CCCCc1nc(Cl)c(CO)n1Cc1ccc(-c2ccccc2-c2nn[nH]n2)cc1 [LOSARTAN] | 0.9 mL/min/kg |
| CC[C@H](C)C(=O)O[C@H]1C[C@@H](C)C=C2C=C[C@H](C)[C@H](CC[C@@H]3C[C@@H](O)CC(=O)O3)[C@H]21 [LOVASTATIN] | 0.72 mL/min/kg |
| COC(=O)Nc1nc2ccc(C(=O)c3ccccc3)cc2[nH]1 [MEBENDAZOLE] | 0.17 mL/min/kg |
| CCOC(=O)C1(c2ccccc2)CCN(C)CC1 [MEPERIDINE] | 0.25 mL/min/kg |
| CCC1(c2cccc(O)c2)CCCCN(C)C1 (stereo not given) [MEPTAZINOL] | 1.4 mL/min/kg |
| Sc1ncnc2nc[nH]c12 [MERCAPTOPURINE ANHYDROUS] | 0.68 mL/min/kg |
| C[C@@H](O)[C@H]1C(=O)N2C(C(=O)O)=C(S[C@@H]3CN[C@H](C(=O)N(C)C)C3)[C@H](C)[C@H]12 [MEROPENEM] | 2.73 mL/min/kg |
| CN(C)C(=N)N=C(N)N [METFORMIN] | 7.4 mL/min/kg |
| COc1cccc(OC)c1C(=O)N[C@@H]1C(=O)N2[C@@H]1SC(C)(C)[C@@H]2C(=O)O [METHICILLIN] | 4.2 mL/min/kg |

| SMILES | CL renal |
| --- | --- |
| CN(Cc1cnc2nc(N)nc(N)c2n1)c1ccc(C(=O)N[C@@H](CCC(=O)O)C(=O)O)cc1 [METHOTREXATE] | 1.7 mL/min/kg |
| C[C@](N)(Cc1ccc(O)c(O)c1)C(=O)O [METHYLDOPA] | 2.1 mL/min/kg |
| C[C@H]1C[C@@H]2[C@H]([C@@H](O)C[C@@]3(C)[C@H]2CC[C@]3(O)C(=O)CO)[C@@]2(C)C=CC(=O)C=C12 [METHYLPREDNISOLONE] | 0.3 mL/min/kg |
| CCN(CC)CCNC(=O)c1cc(Cl)c(N)cc1OC [METOCLOPRAMIDE] | 1.14 mL/min/kg |
| COc1ccc2cc1Oc1cc3c(cc1OC)CC[N+](C)(C)[C@H]3Cc1ccc(cc1)Oc1c(OC)c(OC)cc3c1[C@@H](C2)[N+](C)(C)CC3.[I-].[I-] [METOCURINE IODIDE] | 0.52 mL/min/kg |
| Cc1ccccc1N1C(=O)c2cc(S(N)(=O)=O)c(Cl)cc2NC1C (stereo not given) [METOLAZONE] | 1.12 mL/min/kg |
| COCCc1ccc(OCC(O)CNC(C)C)cc1 (stereo not given) [METOPROLOL] | 0.65 mL/min/kg |
| CC(=O)Nc1c(I)c(C(=O)O)c(I)c(N(C)C(C)=O)c1I [METRIZOIC ACID] | 2.53 mL/min/kg |
| Cc1ncc([N+](=O)[O-])n1CCO [METRONIDAZOLE] | 0.19 mL/min/kg |
| Cc1cccc(C)c1OCC(C)N (stereo not given) [MEXILETINE] | 0.83 mL/min/kg |
| OCCN1C[C@H](O)[C@@H](O)[C@H](O)[C@H]1CO [MIGLITOL] | 1.7 mL/min/kg |
| Cc1[nH]c(=O)c(C#N)cc1-c1ccncc1 [MILRINONE] | 5 mL/min/kg |
| O=C1c2c(O)ccc(O)c2C(=O)c2c(NCCNCCO)ccc(NCCNCCO)c21 [MITOXANTRONE] | 0.5 mL/min/kg |
| CO[C@@]1(NC(=O)C(C(=O)O)c2ccc(O)cc2)C(=O)N2C(C(=O)O)=C(CSc3nnnn3C)CO[C@@H]21 (stereo not given in full) [MOXALACTAM] | 0.63 mL/min/kg |
| COc1nc(C)nc(Cl)c1N=C1NCCN1 [MOXONIDINE] | 7.5 mL/min/kg |
| CC(C)(C)NCC(O)COc1cccc2c1CC(O)C(O)C2 (stereo not given) [NADOLOL] | 1.8 mL/min/kg |
| CCOc1ccc2ccccc2c1C(=O)N[C@@H]1C(=O)N2[C@@H]1SC(C)(C)[C@@H]2C(=O)O [NAFCILLIN] | 1.03 mL/min/kg |
| Oc1ccc2c3c1O[C@H]1[C@@H](O)CC[C@@]4(O)[C@@H](C2)N(CC2CCC2)CC[C@]314 [NALBUPHINE] | 0.95 mL/min/kg |
| CC(C)[C@H]1CC[C@H](C(=O)N[C@H](Cc2ccccc2)C(=O)O)CC1 [NATEGLINIDE] | 0.1 mL/min/kg |
| CCc1nn(CCCN2CCN(c3cccc(Cl)c3)CC2)c(=O)n1CCOc1ccccc1 [NEFAZODONE] | 0.38 mL/min/kg |

| SMILES | CL renal |
| --- | --- |
| CCN[C@@H]1C[C@H](N)[C@@H](O[C@H]2OC(CN)=CC[C@H]2N)[C@H](O)[C@H]1O[C@H]1OC[C@](C)(O)[C@H](NC)[C@H]1O [NETILMICIN] | 0.28 mL/min/kg |
| CN1CCC[C@H]1c1cccnc1 [NICOTINE] | 3 mL/min/kg |
| O=C1CN=C(c2ccccc2)c2cc([N+](=O)[O-])ccc2N1 [NITRAZEPAM] | 0.01 mL/min/kg |
| CCOC(=O)C1=C(C)NC(C)=C(C(=O)OC)C1c1cccc([N+](=O)[O-])c1 (stereo not given) [NITRENDIPINE] | 0.25 mL/min/kg |
| CNC(=C[N+](=O)[O-])NCCSCc1csc(CN(C)C)n1 [NIZATIDINE] | 7.35 mL/min/kg |
| CN1Cc2c(N)cccc2C(c2ccccc2)C1 (stereo not given) [NOMIFENSINE] | 12.5 mL/min/kg |
| COc1ccc2[nH]c([S+]([O-])Cc3ncc(C)c(OC)c3C)nc2c1 (stereo not given) [OMEPRAZOLE] | 0.08 mL/min/kg |
| CCC(CC)O[C@@H]1C=C(C(=O)O)C[C@H](N)[C@H]1NC(C)=O [OSELTAMIVIR CARBOXYLATE] | 4.46 mL/min/kg |
| Cc1onc(-c2ccccc2)c1C(=O)N[C@@H]1C(=O)N2[C@@H]1SC(C)(C)[C@@H]2C(=O)O [OXACILLIN] | 2.6 mL/min/kg |
| COc1ccc2c3c1O[C@H]1C(=O)CC[C@@]4(O)[C@@H](C2)N(C)CC[C@]314 [OXYCODONE] | 1.1 mL/min/kg |
| CC(=O)O[C@H]1C(=O)[C@@]2(C)[C@H]([C@H](OC(=O)c3ccccc3)[C@]3(O)C[C@H](OC(=O)[C@H](O)[C@@H](NC(=O)c4ccccc4)c4ccccc4)C(C)=C1C3(C)C)[C@]1(OC(C)=O)CO[C@@H]1C[C@@H]2O [PACLITAXEL] | 0.64 mL/min/kg |
| Nc1nc2c(ncn2CCC(CO)CO)c(=O)[nH]1 [PENCICLOVIR] | 6.7 mL/min/kg |
| CC1(C)S[C@@H]2[C@H](NC(=O)Cc3ccccc3)C(=O)N2[C@H]1C(=O)O [PENICILLIN G] | 5 mL/min/kg |
| CC1(C)S[C@@H]2[C@H](NC(=O)COc3ccccc3)C(=O)N2[C@H]1C(=O)O [PENICILLIN V] | 1.74 mL/min/kg |
| OCCN1CCN(CCCN2c3ccccc3Sc3ccc(Cl)cc32)CC1 [PERPHENAZINE] | 5 mL/min/kg |
| c1ccc(C2(N3CCCCC3)CCCCC2)cc1 [PHENCYCLIDINE] | 0.82 mL/min/kg |
| CCC1(c2ccccc2)C(=O)NC(=O)NC1=O [PHENOBARBITAL] | 0.02 mL/min/kg |
| NS(=O)(=O)c1cc(C(=O)O)cc(N2CCCC2)c1Oc1ccccc1 [PIRETANIDE] | 1.05 mL/min/kg |
| CC1CCCC(C)N1CCCC(O)(c1ccccc1)c1ccccn1 (stereo not given) [PIRMENOL] | 0.72 mL/min/kg |
| CC[C@H](C)C(=O)O[C@H]1C[C@H](O)C=C2C=C[C@H](C)[C@H](CC[C@@H](O)C[C@@H](O)CC(=O)O)[C@H]21 [PRAVASTATIN] | 6.3 mL/min/kg |
